Data reported in patent publication US9012655B2, “Antimicrobial/adjuvant compounds and methods” (Denouamed, Inc., priority 2011, dated 2015).
Values after ≈ are worked out from the molar mass of the structure shown. Like-named read-outs stand apart in the source and are kept apart here.

Key:
[1] = tested on: Staphylococcus aureus EUP MRSA002; assay: MIC panel of challenge pathogens (CLSI), EUP MRSA002; format: cell-based
Protocol: The inocula for each bacterial strain were prepared by picking 5-10 distinct colonies from the culture plates and suspending them in the appropriate broth as per Clinical and Laboratory Standards Institute (CLSI) guidelines M07-A8, M24-A or M11-A7 as appropriate. The inoculum was resuspended by vigorous shaking on a vortex mixer for 15 s. The turbidity was then adjusted to McFarland standard 0.5 ([…]). The inoculum was further diluted in the appropriate media for MIC tests to give a final inoculum in each well of 2-8×10^5 CFU/ml. MICs were tested in the appropriate broth in accordance with the appropriate CLSI guidelines.
A stock solution of each compound was prepared at a concentration of 1.28 g/L in DMSO. The stock was further diluted in the appropriate media to give a top starting concentration of 128 mg/L in the assay. 100 μL of the appropriate media, as per CLSI guidelines, was dispensed into each well in columns 2-12. 200 μL of the each compound solution (at 256 mg/L) was dispensed into each well in column 1. 100 μL aliquots were pipetted from column 1 wells and dispensed into column 2 with a multichannel pipette (±2% coefficient of variation) thus diluting two-fold. 100 μL samples were then pipetted from column 2 wells and dispensed into column 3. The process was repeated through to column 10. The final 100 μL of diluted drug from column 10 was then discarded. Row 11 acted as a positive control (no compound, but organisms added), Row 12 acted as a negative control (no compound, and no organisms added).
100 μL of the appropriate inoculum suspension in the appropriate media, as per CLSI guidelines, was added to the appropriate wells. […] All plates were incubated in the dark under aerobic or anaerobic conditions at 30-37° C. for 24-48 hours, according to the appropriate CLSI guideline. Plates were read visually 24-48 hours post inoculation. Endpoints of 100% inhibition were determined (CLSI interpretation endpoints following visual examination).
MIC50, MIC80, and 100% inhibition results are reported below in μg/mL in the following Tables, indicating each compound tested against a given species and strain: […]

E. coli D22 = assay: MIC, NCCLS M7-A6 broth microdilution, E. coli D22; format: cell-based; conditions: 35 degrees Celsius; for MIC: Escherichia coli, D22, 16 to 20 h
Protocol: (§1) Susceptibilities to the compounds were determined using the National Committee for Clinical Laboratory Standards (NCCLS) M7-A6 broth microdilution method. Cation-adjusted Mueller-Hinton broth (Ca^2+, 25 μg/mL; Mg^2+, 12.5 μg/mL) microdilution panels were prepared to contain antimicrobial doubling dilution concentrations of an appropriate range. DMSO (dimethylsulfoxide) controls were incorporated into the panel to mimic the quantity of DMSO used in dissolving some of the compounds at the higher concentrations. Each final panel well volume was 100 μL with a bacterial inoculum of 5×10^5 CFU (colony forming units)/mL of the relevant bacterium. Panels were read following 16 to 20 h of incubation at 35 degrees Celsius in ambient air. The MIC (minimum inhibitory concentration) was defined as the lowest concentration of antimicrobial inhibiting visible growth.

[2] = tested on: Methicillin-Resistant Staph. aureus (MRSA); assay: MIC, NCCLS M7-A6 broth microdilution, MRSA; format: cell-based; conditions: 16 to 20 h, 35 degrees Celsius; for MIC: Staphylococcus aureus, MRSA
Protocol: as §1

AcpS enzyme = AcpS enzyme (Escherichia coli, UniProt P24224); assay: Measurement of AcpS inhibition ([3H]acetyl-CoA incorporation into apo-ACP); format: biochemical; conditions: % activity vs blank-subtracted counts
AcpS enzyme, sequence (P24224 whole entry): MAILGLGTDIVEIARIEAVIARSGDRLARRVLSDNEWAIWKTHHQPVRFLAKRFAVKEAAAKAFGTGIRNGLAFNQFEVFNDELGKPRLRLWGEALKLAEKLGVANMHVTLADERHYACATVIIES
Protocol: [^3H]Acetyl-CoA was mixed as 1 volume of Perkin Elmer NET290 radiolabeled stock (e.g. 0.1 mCi/ml, 3.7 Ci/mmol in Na-acetate, pH 4.5-5.0=27 μM) with 1.2 volumes of 1 mM unlabelled acetyl-CoA (Sigma). Trichloroacetic acid was prepared as a 10% w/v solution. Bovine serum albumin was prepared as a 25 mg/ml solution in water. DTT was prepared as a 50 mM solution in water.
• 1. A standard reaction contained the following in a total volume of 10 μl:
• 2. Tubes were incubated at RT. [^3H]acetyl-CoA was added last to start the reaction. To stop the reaction, 2 μl was removed to a 1.5-ml microfuge tube containing 800 μl cold 10% TCA. Up to four time points were collected for each reaction, e.g. at 5 min, 10 min, 30 min, and 60 min. • 3. 20 μl of 25 mg/ml BSA was added to each tube, mixed and incubated on ice for 10 min, then centrifuged at 12,000 g for 5 min to form a pellet. Supernatant was removed using P1000. • 4. Each pellet was washed twice with 800 μl of cold 10% TCA each time, then centrifuged at 12,000 g for 5 min after each wash. The supernatant was discarded. Each pellet was resuspended in 50 μl of formic acid. The suspension was transferred to a scintillation vial and radioactivity was measured in 2 ml of liquid scintillation cocktail.
The random (stochastic) error in scintillation counting is proportional to the square root of the counts (not dpm) accumulated in the counting period; i.e. 10% for 100, 3.3% for 1,000, 1% for 10,000, etc. Provided radioactive counts (dpm) are in the thousands, the assay provides useful data. Results are reported in terms of % activity with respect to the blank-subtracted counts for working substrate. A % activity of less than about 40% is indicative of AcpS enzyme inhibition by the test compound at that concentration.

Ps. aeruginosa = assay: Combination MICs for antibiotic adjuvant potential; format: cell-based
Protocol: as §1
Generally following the procedure of Example 9, MICs of ampicillin, erythromycin, and azithromycin were determined against Ps. aeruginosa. Parallel to this effort, solutions were prepared which were identical. To each of these were added 0.5 μL of stock solution of a given compound of the present invention, then diluted to produce a final concentration of 125 μM, 60 μM, and/or 30 μM for determination of adjuvant activity. Compounds were determined to be antibiotic adjuvants if the mixture produced a lower MIC than that of the antibiotic agent alone.

[3] = tested on: Streptococcus pneumoniae Group A; assay: MIC against Streptococcus pneumoniae Group A; format: cell-based; conditions: initial measurement, Todd Hewitt broth
Protocol: as §1
Generally following the procedure of Example 9, but using Todd Hewitt broth (beef heart digest) rather than Mueller-Hinton broth, MICs were initially measured against Streptococcus pneumoniae Group A for compounds of the present invention as follows: […]

[4] = Staphylococcus aureus EUP MRSA002
[5] = EUPMRSA002, Staphylococcus aureus EUP MRSA002, read-out: 100% inhibition
[6] = EUPMRSA002, Staphylococcus aureus EUP MRSA002, read-out: MIC50 (50%)
[7] = EUPMRSA002, Staphylococcus aureus EUP MRSA002, read-out: MIC80 (80%)

Compound | MIC [1, 5] [µg/mL] | MIC50 [1, 6] [µg/mL] | MIC80 [1, 7] [µg/mL] | MIC (E. coli D22) [µM] | MIC [2] [µM] | activity at 50 µM (AcpS enzyme; test compound 50 uM) [%] | remaining activity at 500 µM (AcpS enzyme; test compound 500 uM) [%] | further results
Cc1ccc(-c2cc(-c3nn[nH]n3)cc(-c3ccccc3-c3ccccc3)c2)c2ccccc12 [DNM0474] |  |  |  |  |  |  |  | 100% inhibition [1, 4]: 0.5 µg/mL; MIC50 (50%) [1, 4]: 0.5 µg/mL (≈ 1.14 µM); MIC80 (80%) [1, 4]: 0.5 µg/mL (≈ 1.14 µM); MIC E coli D22 (E. coli D22; 16 to 20 h): >125 µM; MIC MRSA [2]: 2 µM (≈ 0.877 µg/mL); % AcpS activity at 50 uM (AcpS enzyme; test compound 50 uM): 15.08%; % AcpS activity @ 500 uM (AcpS enzyme; test compound 500 uM): 0.3%
Clc1ccc(-c2cc(-c3nnn[nH]3)sc2-c2ccc(Cl)cc2)cc1 [DNM0487, 5-(4,5-Bis(4-chlorophenyl)thiophen-2-yl)-1H-tetrazole] | 1 (≈ 2.68 µM) | 1 (≈ 2.68 µM) | 1 (≈ 2.68 µM) | > 125 | 8 (≈ 2.99 µg/mL) | 3.34 | 0.08 | MIC (Ps. aeruginosa; Pseudomonas aeruginosa, compound alone, read-out: standalone MIC): > 2000 µM
Cc1cc(Cl)ccc1-c1cc(-c2nnn[nH]2)sc1-c1ccc(Cl)cc1C [DNM0488, 5-(4,5-Bis(4-chloro-2-methylphenyl)thiophen-2-yl)-1H-tetrazole] | 0.5 (≈ 1.25 µM) | 0.5 (≈ 1.25 µM) | 0.5 (≈ 1.25 µM) | 125 (≈ 50.2 µg/mL) | 4 (≈ 1.61 µg/mL) | 11.5 | 0.32 | 
Cc1ccc(Cl)cc1-c1cc(-c2nnn[nH]2)sc1-c1cc(Cl)ccc1C [DNM0508, 5-(4,5-Bis(5-chloro-2-methylphenyl)thiophen-2-yl)-1H-tetrazole] | 1 (≈ 2.49 µM) | 1 (≈ 2.49 µM) | 1 (≈ 2.49 µM) | > 125 | 4 (≈ 1.61 µg/mL) | 44.9 | 0.1 | 
Fc1ccc(-c2cc(-c3nnn[nH]3)sc2-c2ccc(F)c3ccccc23)c2ccccc12 [DNM0537, 5-(4,5-Bis(4-fluoronaphthalen-1-yl)thiophen-2-yl)-1H-tetrazole] | 1 (≈ 2.27 µM) | 0.5 (≈ 1.14 µM) | 1 (≈ 2.27 µM) | 125 (≈ 55.1 µg/mL) | 2 (≈ 0.881 µg/mL) | 1.28 | 0.14 | fold lower MIC for erythromycin (Ps. aeruginosa; compound at 30 μM): ≤ 7 fold
CC(C)c1cc(Cl)ccc1-c1cc(-c2nnn[nH]2)sc1-c1ccc(Cl)cc1C(C)C [DNM0548, 5-(4,5-Bis(4-chloro-2-iso-propylphenyl)thiophen-2-yl)-1H-tetrazole] | ≤ 0.25 | ≤ 0.25 | ≤ 0.25 | 60 (≈ 27.4 µg/mL) | 4 (≈ 1.83 µg/mL) | 3.1 | 0.1 | MIC [3]: < 0.25 µM; fold lower MIC for ampicillin (Ps. aeruginosa; compound at 125 μM): up to 125 fold; fold lower MIC for erythromycin (Ps. aeruginosa; compound at 125 μM): up to 125 fold
CC(C)c1cc(Cl)ccc1-c1cc(C(=O)O)sc1-c1ccc(Cl)cc1C(C)C [DNM0566, 4,5-Bis(4-chloro-2-isopropylphenyl)thiophene-2-carboxylic acid] | ≤ 0.25 | ≤ 0.25 | ≤ 0.25 |  |  |  |  | 
Cc1cc(Cl)ccc1-c1cc(-c2nnn[nH]2)sc1-c1ccc(C)c2ccccc12 [DNM0576, 5-(4-(4-Chloro-2-methylphenyl)-5-(4-methylnaphthalen-1-yl)thiophen-2-yl)-1H-tetrazole] | 0.5 (≈ 1.2 µM) | 0.5 (≈ 1.2 µM) | 0.5 (≈ 1.2 µM) | > 125 | 4 (≈ 1.67 µg/mL) | 5.88 | 0.15 | MIC [3]: 0.5 µM (≈ 0.208 µg/mL)
CCCCc1cccc(-c2cc(-c3nnn[nH]3)sc2Cc2ccc(Cl)cc2)c1 [DNM0606, 5-(4-(3-Butylphenyl)-5-(4-chlorobenzyl)thiophen-2-yl)-1H-tetrazole] | ≤ 0.25 | ≤ 0.25 | ≤ 0.25 |  |  |  |  | 
Clc1ccc(Cc2sc(-c3nnn[nH]3)cc2-c2cccc(CC3CCCC3)c2)cc1 [DNM0610, 5-(5-(4-Chlorobenzyl)-4-(3-(cyclopentylmethyl)phenyl)thiophen-2-yl)-1H-tetrazole] | 0.5 (≈ 1.15 µM) | 0.5 (≈ 1.15 µM) | 0.5 (≈ 1.15 µM) |  |  |  |  | 
CN[C@H](CC(C)C)C(=O)N[C@H]1C(=O)N[C@@H](CC(N)=O)C(=O)N[C@H]2C(=O)N[C@H]3C(=O)N[C@H](C(=O)N[C@H](C(=O)O)c4cc(O)cc(O)c4-c4cc3ccc4O)[C@H](O)c3ccc(c(Cl)c3)Oc3cc2cc(c3O[C@@H]2O[C@H](CO)[C@@H](O)[C@H](O)[C@H]2O[C@H]2C[C@](C)(N)[C@H](O)[C@H](C)O2)Oc2ccc(cc2Cl)[C@H]1O [Vancomycin, reference compound] |  |  |  |  |  |  |  | MIC ([1]; Staphylococcus aureus, EUPMRSA002, read-out: 100% inhibition): 0.5 µg/mL (≈ 0.345 µM); MIC50 ([1]; Staphylococcus aureus, EUPMRSA002, read-out: MIC50 (50%)): 0.5 µg/mL (≈ 0.345 µM); MIC80 ([1]; Staphylococcus aureus, EUPMRSA002, read-out: MIC80 (80%)): 0.5 µg/mL (≈ 0.345 µM)
